# Tested on: NCIH82 cells
# Experiment: Cell proliferation experiment, NCI-H82
# Assay type: cell-based, human
# Conditions: Homo sapiens, NCI-H82, NCI-H82 cells; read-out: Inhibitory activity IC50 on NCI-H82
# Summary of the method: (§1)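 Alamar blue fluorescence after 72 h of compound exposure; IC50 from 4-parameter fit (Min, Max, Slope). Cells passaged ≥2 times, log-phase, 96-well, duplicate wells, 5-fold serial dilutions.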
row,SMILES,IC50
1,O=C1CCC(N2Cc3cc(NC(=O)CCNCCOCCOCCNC(=O)[C@]4(Cc5cccc(Nc6nccs6)n5)CC[C@@H](Oc5cccc(Cl)c5F)CC4)ccc3C2=O)C(=O)N1 (some centres unmarked) [UB-181031],> 1000 nM
2,O=C1CCC(N2Cc3cc(NC(=O)CNCCCOCCOCCNC(=O)[C@]4(Cc5cccc(Nc6nccs6)n5)CC[C@@H](Oc5cccc(Cl)c5F)CC4)ccc3C2=O)C(=O)N1 (some centres unmarked) [UB-181032],> 1000 nM
3,O=C1CCC(N2Cc3cc(NC(=O)CCNCCCOCCCCNC(=O)c4ccc(Nc5ncc6c(n5)-c5ccc(Cl)cc5C(c5c(F)cccc5F)=NC6)cc4)ccc3C2=O)C(=O)N1 (centres unmarked) [UB-181033],> 1000 nM
4,O=C1CCC(N2Cc3cc(NC(=O)CCNCCCOCCCCNC(=O)[C@]4(Cc5cccc(Nc6nccs6)n5)CC[C@@H](Oc5cccc(Cl)c5F)CC4)ccc3C2=O)C(=O)N1 (some centres unmarked) [UB-181034],> 1000 nM
5,O=C1CCC(N2Cc3c(NC(=O)CNCCCOCCOCCNC(=O)[C@]4(Cc5cccc(Nc6nccs6)n5)CC[C@@H](Oc5cccc(Cl)c5F)CC4)cccc3C2=O)C(=O)N1 (some centres unmarked) [UB-181035],> 1000 nM
6,O=C1CCC(N2Cc3c(NC(=O)CCNCCOCCOCCNC(=O)[C@]4(Cc5cccc(Nc6nccs6)n5)CC[C@@H](Oc5cccc(Cl)c5F)CC4)cccc3C2=O)C(=O)N1 (some centres unmarked) [UB-181036],> 1000 nM
7,O=C1CCC(N2Cc3c(NC(=O)CCOCCOCCOCCN[C@H]4CC[C@@H](NC(=O)[C@]5(Cc6cccc(Nc7nccs7)n6)CC[C@@H](Oc6cccc(Cl)c6F)CC5)CC4)cccc3C2=O)C(=O)N1 (some centres unmarked) [UB-181037],> 1000 nM
8,O=C1CCC(N2Cc3cc(NC(=O)CCOCCOCCOCCN[C@H]4CC[C@@H](NC(=O)[C@]5(Cc6cccc(Nc7nccs7)n6)CC[C@@H](Oc6cccc(Cl)c6F)CC5)CC4)ccc3C2=O)C(=O)N1 (some centres unmarked) [UB-181038],> 1000 nM
9,CNC(=O)c1ccccc1Nc1nc(Nc2ccc(N3CCN(C(=O)NCCOCCOCCNCCC(=O)Nc4ccc5c(c4)CN(C4CCC(=O)NC4=O)C5=O)CC3)cc2)ncc1Cl (centres unmarked) [UB-181039],100 to 1000 nM
10,CNC(=O)c1ccccc1Nc1nc(Nc2ccc(N3CCN(C(=O)NCCOCCOCCCNCC(=O)Nc4cccc5c4CN(C4CCC(=O)NC4=O)C5=O)CC3)cc2)ncc1Cl (centres unmarked) [UB-181040],> 1000 nM
11,O=C1CCC(N2Cc3cc(NC(=O)CCOCCNCCOCCn4cc(-c5ccc(Nc6ncc7c(n6)-c6ccc(Cl)cc6C(c6c(F)cccc6F)=NC7)cc5)nn4)ccc3C2=O)C(=O)N1 (centres unmarked) [UB-181041],> 1000 nM

# Tested on: MDA-MB-231 cells
# Experiment: Cell proliferation experiment, MDA-MB-231
# Assay type: cell-based, human
# Conditions: Homo sapiens, MDA-MB-231, MDA-MB-231 cells; read-out: Inhibitory activity IC50 on MDA-MB-231
# Description: (§2) Reagents: RPMI-1640 medium, McCoy's 5A medium, IMDM medium, MEM medium, L-15 medium, fetal bovine serum. Penicillin-Streptomycin double antibody, trypsin, etc., 2-mercaptoethanol, NEAA, pyruvate, etc.
# (§3) The cells were cultured in conventional ways, and the cells should be passed at least 2 generations before plating. Cells at the logarithmic growth phase were collected, prepared into single cell suspensions and counted. The concentration of cells was adjusted to the desired concentration, and cells were inoculated into a 96-well cell culture plate at 100 μl per well. 100 μL of complete medium of the test compound were added to each well, set up 2 duplicate wells for each concentration, and diluted with a 5-fold gradient, and continued to culture for 72 h. All cells were subjected to IC50 test for corresponding samples. The experimental results are shown in Test Example 4.
# (§4) The fluorescence intensity of each well was detected using the Alarm blue method, and IC50 was calculated.
# (§5) IC50 was calculated according to the following formula:
# (§6) Y=Max+(Min−Max)/[1+(X/IC50)×Slope]
# (§7) wherein Min, Max and Slope represent the minimum, maximum and slope respectively.
row,SMILES,IC50
1,O=C1CCC(N2Cc3cc(NC(=O)CCNCCOCCOCCNC(=O)[C@]4(Cc5cccc(Nc6nccs6)n5)CC[C@@H](Oc5cccc(Cl)c5F)CC4)ccc3C2=O)C(=O)N1 (some centres unmarked) [UB-181031],> 1000 nM
2,O=C1CCC(N2Cc3cc(NC(=O)CNCCCOCCOCCNC(=O)[C@]4(Cc5cccc(Nc6nccs6)n5)CC[C@@H](Oc5cccc(Cl)c5F)CC4)ccc3C2=O)C(=O)N1 (some centres unmarked) [UB-181032],> 1000 nM
3,O=C1CCC(N2Cc3cc(NC(=O)CCNCCCOCCCCNC(=O)c4ccc(Nc5ncc6c(n5)-c5ccc(Cl)cc5C(c5c(F)cccc5F)=NC6)cc4)ccc3C2=O)C(=O)N1 (centres unmarked) [UB-181033],> 1000 nM
4,O=C1CCC(N2Cc3cc(NC(=O)CCNCCCOCCCCNC(=O)[C@]4(Cc5cccc(Nc6nccs6)n5)CC[C@@H](Oc5cccc(Cl)c5F)CC4)ccc3C2=O)C(=O)N1 (some centres unmarked) [UB-181034],> 1000 nM
5,O=C1CCC(N2Cc3c(NC(=O)CNCCCOCCOCCNC(=O)[C@]4(Cc5cccc(Nc6nccs6)n5)CC[C@@H](Oc5cccc(Cl)c5F)CC4)cccc3C2=O)C(=O)N1 (some centres unmarked) [UB-181035],> 1000 nM
6,O=C1CCC(N2Cc3c(NC(=O)CCNCCOCCOCCNC(=O)[C@]4(Cc5cccc(Nc6nccs6)n5)CC[C@@H](Oc5cccc(Cl)c5F)CC4)cccc3C2=O)C(=O)N1 (some centres unmarked) [UB-181036],> 1000 nM
7,O=C1CCC(N2Cc3c(NC(=O)CCOCCOCCOCCN[C@H]4CC[C@@H](NC(=O)[C@]5(Cc6cccc(Nc7nccs7)n6)CC[C@@H](Oc6cccc(Cl)c6F)CC5)CC4)cccc3C2=O)C(=O)N1 (some centres unmarked) [UB-181037],> 1000 nM
8,O=C1CCC(N2Cc3cc(NC(=O)CCOCCOCCOCCN[C@H]4CC[C@@H](NC(=O)[C@]5(Cc6cccc(Nc7nccs7)n6)CC[C@@H](Oc6cccc(Cl)c6F)CC5)CC4)ccc3C2=O)C(=O)N1 (some centres unmarked) [UB-181038],> 1000 nM
9,CNC(=O)c1ccccc1Nc1nc(Nc2ccc(N3CCN(C(=O)NCCOCCOCCNCCC(=O)Nc4ccc5c(c4)CN(C4CCC(=O)NC4=O)C5=O)CC3)cc2)ncc1Cl (centres unmarked) [UB-181039],> 1000 nM
10,CNC(=O)c1ccccc1Nc1nc(Nc2ccc(N3CCN(C(=O)NCCOCCOCCCNCC(=O)Nc4cccc5c4CN(C4CCC(=O)NC4=O)C5=O)CC3)cc2)ncc1Cl (centres unmarked) [UB-181040],> 1000 nM
11,O=C1CCC(N2Cc3cc(NC(=O)CCOCCNCCOCCn4cc(-c5ccc(Nc6ncc7c(n6)-c6ccc(Cl)cc6C(c6c(F)cccc6F)=NC7)cc5)nn4)ccc3C2=O)C(=O)N1 (centres unmarked) [UB-181041],> 1000 nM

# Tested on: PC-3
# Experiment: Cell proliferation experiment, PC-3
# Assay type: cell-based, human
# Conditions: Homo sapiens, PC-3, PC-3 cells; read-out: Inhibitory activity IC50 on PC-3
# Description: as §2, §3, §4, §5, §6, §7
row,SMILES,IC50
1,O=C1CCC(N2Cc3cc(NC(=O)CCNCCOCCOCCNC(=O)[C@]4(Cc5cccc(Nc6nccs6)n5)CC[C@@H](Oc5cccc(Cl)c5F)CC4)ccc3C2=O)C(=O)N1 (some centres unmarked) [UB-181031],> 1000 nM
2,O=C1CCC(N2Cc3cc(NC(=O)CNCCCOCCOCCNC(=O)[C@]4(Cc5cccc(Nc6nccs6)n5)CC[C@@H](Oc5cccc(Cl)c5F)CC4)ccc3C2=O)C(=O)N1 (some centres unmarked) [UB-181032],> 1000 nM
3,O=C1CCC(N2Cc3cc(NC(=O)CCNCCCOCCCCNC(=O)c4ccc(Nc5ncc6c(n5)-c5ccc(Cl)cc5C(c5c(F)cccc5F)=NC6)cc4)ccc3C2=O)C(=O)N1 (centres unmarked) [UB-181033],> 1000 nM
4,O=C1CCC(N2Cc3cc(NC(=O)CCNCCCOCCCCNC(=O)[C@]4(Cc5cccc(Nc6nccs6)n5)CC[C@@H](Oc5cccc(Cl)c5F)CC4)ccc3C2=O)C(=O)N1 (some centres unmarked) [UB-181034],> 1000 nM
5,O=C1CCC(N2Cc3c(NC(=O)CNCCCOCCOCCNC(=O)[C@]4(Cc5cccc(Nc6nccs6)n5)CC[C@@H](Oc5cccc(Cl)c5F)CC4)cccc3C2=O)C(=O)N1 (some centres unmarked) [UB-181035],> 1000 nM
6,O=C1CCC(N2Cc3c(NC(=O)CCNCCOCCOCCNC(=O)[C@]4(Cc5cccc(Nc6nccs6)n5)CC[C@@H](Oc5cccc(Cl)c5F)CC4)cccc3C2=O)C(=O)N1 (some centres unmarked) [UB-181036],> 1000 nM
7,O=C1CCC(N2Cc3c(NC(=O)CCOCCOCCOCCN[C@H]4CC[C@@H](NC(=O)[C@]5(Cc6cccc(Nc7nccs7)n6)CC[C@@H](Oc6cccc(Cl)c6F)CC5)CC4)cccc3C2=O)C(=O)N1 (some centres unmarked) [UB-181037],> 1000 nM
8,O=C1CCC(N2Cc3cc(NC(=O)CCOCCOCCOCCN[C@H]4CC[C@@H](NC(=O)[C@]5(Cc6cccc(Nc7nccs7)n6)CC[C@@H](Oc6cccc(Cl)c6F)CC5)CC4)ccc3C2=O)C(=O)N1 (some centres unmarked) [UB-181038],> 1000 nM
9,CNC(=O)c1ccccc1Nc1nc(Nc2ccc(N3CCN(C(=O)NCCOCCOCCNCCC(=O)Nc4ccc5c(c4)CN(C4CCC(=O)NC4=O)C5=O)CC3)cc2)ncc1Cl (centres unmarked) [UB-181039],> 1000 nM
10,CNC(=O)c1ccccc1Nc1nc(Nc2ccc(N3CCN(C(=O)NCCOCCOCCCNCC(=O)Nc4cccc5c4CN(C4CCC(=O)NC4=O)C5=O)CC3)cc2)ncc1Cl (centres unmarked) [UB-181040],> 1000 nM
11,O=C1CCC(N2Cc3cc(NC(=O)CCOCCNCCOCCn4cc(-c5ccc(Nc6ncc7c(n6)-c6ccc(Cl)cc6C(c6c(F)cccc6F)=NC7)cc5)nn4)ccc3C2=O)C(=O)N1 (centres unmarked) [UB-181041],> 1000 nM

# Tested on: MV4;11 cells
# Experiment: Cell proliferation experiment (Alamar blue, 72 h), MV4;11
# Assay type: cell-based, human
# Conditions: Homo sapiens, MV4-11, MV4;11 cells; read-out: Inhibitory activity IC50 on MV4;11
# Summary of the method: as §1
row,SMILES,IC50
1,O=C1CCC(N2Cc3cc(NC(=O)CCNCCOCCOCCNC(=O)[C@]4(Cc5cccc(Nc6nccs6)n5)CC[C@@H](Oc5cccc(Cl)c5F)CC4)ccc3C2=O)C(=O)N1 (some centres unmarked) [UB-181031],> 1000 nM
2,O=C1CCC(N2Cc3cc(NC(=O)CNCCCOCCOCCNC(=O)[C@]4(Cc5cccc(Nc6nccs6)n5)CC[C@@H](Oc5cccc(Cl)c5F)CC4)ccc3C2=O)C(=O)N1 (some centres unmarked) [UB-181032],100 to 1000 nM
3,O=C1CCC(N2Cc3cc(NC(=O)CCNCCCOCCCCNC(=O)c4ccc(Nc5ncc6c(n5)-c5ccc(Cl)cc5C(c5c(F)cccc5F)=NC6)cc4)ccc3C2=O)C(=O)N1 (centres unmarked) [UB-181033],100 to 1000 nM
4,O=C1CCC(N2Cc3cc(NC(=O)CCNCCCOCCCCNC(=O)[C@]4(Cc5cccc(Nc6nccs6)n5)CC[C@@H](Oc5cccc(Cl)c5F)CC4)ccc3C2=O)C(=O)N1 (some centres unmarked) [UB-181034],100 to 1000 nM
5,O=C1CCC(N2Cc3c(NC(=O)CNCCCOCCOCCNC(=O)[C@]4(Cc5cccc(Nc6nccs6)n5)CC[C@@H](Oc5cccc(Cl)c5F)CC4)cccc3C2=O)C(=O)N1 (some centres unmarked) [UB-181035],100 to 1000 nM
6,O=C1CCC(N2Cc3c(NC(=O)CCNCCOCCOCCNC(=O)[C@]4(Cc5cccc(Nc6nccs6)n5)CC[C@@H](Oc5cccc(Cl)c5F)CC4)cccc3C2=O)C(=O)N1 (some centres unmarked) [UB-181036],> 1000 nM
7,O=C1CCC(N2Cc3c(NC(=O)CCOCCOCCOCCN[C@H]4CC[C@@H](NC(=O)[C@]5(Cc6cccc(Nc7nccs7)n6)CC[C@@H](Oc6cccc(Cl)c6F)CC5)CC4)cccc3C2=O)C(=O)N1 (some centres unmarked) [UB-181037],> 1000 nM
8,O=C1CCC(N2Cc3cc(NC(=O)CCOCCOCCOCCN[C@H]4CC[C@@H](NC(=O)[C@]5(Cc6cccc(Nc7nccs7)n6)CC[C@@H](Oc6cccc(Cl)c6F)CC5)CC4)ccc3C2=O)C(=O)N1 (some centres unmarked) [UB-181038],> 1000 nM
9,CNC(=O)c1ccccc1Nc1nc(Nc2ccc(N3CCN(C(=O)NCCOCCOCCNCCC(=O)Nc4ccc5c(c4)CN(C4CCC(=O)NC4=O)C5=O)CC3)cc2)ncc1Cl (centres unmarked) [UB-181039],10 to 100 nM
10,CNC(=O)c1ccccc1Nc1nc(Nc2ccc(N3CCN(C(=O)NCCOCCOCCCNCC(=O)Nc4cccc5c4CN(C4CCC(=O)NC4=O)C5=O)CC3)cc2)ncc1Cl (centres unmarked) [UB-181040],10 to 100 nM
11,O=C1CCC(N2Cc3cc(NC(=O)CCOCCNCCOCCn4cc(-c5ccc(Nc6ncc7c(n6)-c6ccc(Cl)cc6C(c6c(F)cccc6F)=NC7)cc5)nn4)ccc3C2=O)C(=O)N1 (centres unmarked) [UB-181041],> 1000 nM

# From patent US20230210999A1, “TARGETED PROTEASE DEGRADATION (TED) PLATFORM” (EUBULUS BIOTHERAPEUTICS INC., priority 2020, published 2023)
